Assay results reported in patent US20130058998A1, “ENCAPSULATED N-ACETYLMANNOSAMINE OR N-ACETYLNEURAMINIC ACID TO INCREASE SIALYLATION” (United States of America as represented by the Secretary, …, priority 2011, published 2013).

Key:
[1] = tested on: HIBM Gne M712T mutated pups; assay: Survival of mutant HIBM Gne M712T pups after treatment; assay type: in vivo, mouse; details: for survival of mutant pups at P5: Gne M712T mutant pups, untreated 8% survived; for survival rates: orally delivered in drinking water, -/- pups
[2] = tested on: Gne-deficient mouse embryonic stem cells; details: growth medium supplemented with ManNAc; Schwarzkopf et al. 2002; cited from earlier work
cultured cells = details: Charter et al. 2000; cited from earlier work
[3] = oral (not liposome-embedded), addition to drinking water

CC(=O)N[C@H]1[C@H]([C@H](O)[C@H](O)CO)OC(O)(C(=O)O)C[C@@H]1O (some centres unmarked) [NANA, N-acetylneuraminic acid]
survival of mutant pups at P5 [1, 3]: 10% | survival rates [1]: 10%

CC(=O)N[C@H]1[C@@H](O)[C@H](O)[C@@H](CO)O[C@H]1O [ManNAc, N-acetyl-D-mannosamine]
survival of mutant pups at P5 ([1]; intravenous (IV) injection at P1, ManNAc-Lipoplex in 2 different mouse backgrounds): 8% | survival of mutant pups at P5 [1, 3]: 48% | survival rates [1]: 48% | sialylation of hyposialylated cells [2]: became resialylated

CC(=O)CCC(=O)N[C@@H]1C(O)O[C@H](CO)[C@@H](O)[C@@H]1O (some centres unmarked) [ManLev, N-levulinoylmannosamine]
incorporation of sialic acid analogs (SiaLev or SiaNAz) into cell surface glycoconjugates (cultured cells): resulted in incorporation of the downstream sialic acid analogs

[N-]=[N+]=NCC(=O)N[C@@H]1C(O)O[C@H](CO)[C@@H](O)[C@@H]1O (some centres unmarked) [ManNAz, N-azidoacetyl-mannosamine]
incorporation of sialic acid analogs (SiaLev or SiaNAz) into cell surface glycoconjugates (cultured cells): resulted in incorporation of the downstream sialic acid analogs
